The assay addresses SMYD2 (Homo sapiens (Human), UniProt Q9NRG4). As to the kind of experiment: SMYD2 biochemical assay (SMYD2 enzyme assay on peptide substrate, 3H-SAM Flashplate). To be noted: read-out: SMYD2 Biochem IC50; IC50 values are an average of n = 1 to n = 50.

SMYD2, sequence (Q9NRG4 whole entry): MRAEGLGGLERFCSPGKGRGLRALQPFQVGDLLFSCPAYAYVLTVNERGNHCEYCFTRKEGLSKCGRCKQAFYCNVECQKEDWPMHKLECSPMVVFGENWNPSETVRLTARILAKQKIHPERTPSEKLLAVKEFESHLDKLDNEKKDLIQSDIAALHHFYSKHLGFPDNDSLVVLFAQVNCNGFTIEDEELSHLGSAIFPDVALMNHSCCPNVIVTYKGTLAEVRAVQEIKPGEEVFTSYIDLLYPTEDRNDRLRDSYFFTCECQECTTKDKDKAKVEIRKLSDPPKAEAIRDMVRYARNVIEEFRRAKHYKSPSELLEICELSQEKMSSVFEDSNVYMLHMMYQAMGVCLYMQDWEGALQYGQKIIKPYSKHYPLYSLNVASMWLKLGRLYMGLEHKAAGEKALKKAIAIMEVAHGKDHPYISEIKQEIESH

In the case of `O=C(NC1CNC1)c1cn(C2CC2)nn1` [compound 657, N-(azetidin-3-yl)-1-cyclopropyl-1H-1,2,3-triazole-4-carboxamide], the IC50 worked out at 10400 nM.

Regarding `CN1CC(NC(=O)c2cn(C3CC3)nn2)C1` [compound 659, 1-cyclopropyl-N-(1-methylazetidin-3-yl)-1H-1,2,3-triazole-4-carboxamide], the IC50 turned out to be 2840 nM.

In the case of `CCCN1CC(NC(=O)c2cn(C3CC3)nn2)C1` [compound 660, 1-cyclopropyl-N-(1-propylazetidin-3-yl)-1H-1,2,3-triazole-4-carboxamide], the IC50 was 1170 nM.

In the case of `CC(C)N1CC(NC(=O)c2cn(C3CC3)nn2)C1` [compound 662, 1-cyclopropyl-N-[1-(propan-2-yl)azetidin-3-yl]-1H-1,2,3-triazole-4-carboxamide], the IC50 stood at 846 nM.

Turning to `CC(C)N1CC(NC(=O)c2cn(C3CC3)nn2)C1` [compound 663, 1-cyclopropyl-N-[1-(propan-2-yl)azetidin-3-yl]-1H-1,2,3-triazole-4-carboxamide], the IC50 worked out at 585 nM.

`O=C(NC1CN(CC2CC2)C1)c1cn(C2CC2)nn1` [compound 665, 1-cyclopropyl-N-[1-(cyclopropylmethyl)azetidin-3-yl]-1H-1,2,3-triazole-4-carboxamide]: the IC50 is 2000 nM.

Consider `O=C(NC1CN(CC2COC2)C1)c1cn(C2CC2)nn1` [compound 666, 1-cyclopropyl-N-[1-(oxetan-3-ylmethyl)azetidin-3-yl]-1H-1,2,3-triazole-4-carboxamide], for which the IC50 is 6060 nM.

Take `COCCN1CC(NC(=O)c2cn(C3CC3)nn2)C1` [compound 667, 1-cyclopropyl-N-[1-(2-methoxyethyl)azetidin-3-yl]-1H-1,2,3-triazole-4-carboxamide]: the IC50 was determined as 2460 nM.

Take `CC(C)CN1CC(NC(=O)c2cn(C3CC3)nn2)C1` [compound 668, 1-cyclopropyl-N-[1-(2-methylpropyl)azetidin-3-yl]-1H-1,2,3-triazole-4-carboxamide]: the IC50 came to 2750 nM.

`O=C(NC1CN(CC2CCC2)C1)c1cn(C2CC2)nn1` [compound 669, N-[1-(cyclobutylmethyl)azetidin-3-yl]-1-cyclopropyl-1H-1,2,3-triazole-4-carboxamide]: the IC50 is 1620 nM.

Turning to `O=C(NC1CN(CCO)C1)c1cn(C2CC2)nn1` [compound 670, 1-cyclopropyl-N-[1-(2-hydroxyethyl)azetidin-3-yl]-1H-1,2,3-triazole-4-carboxamide], the IC50 came to 4530 nM.

On to `O=C(NC1CN(Cc2ccccc2)C1)c1cn(C2CC2)nn1` [compound 671, N-(1-benzylazetidin-3-yl)-1-cyclopropyl-1H-1,2,3-triazole-4-carboxamide], for which the IC50 came out at 4210 nM.

On to `O=C(NC1CN(Cc2ccccc2)C1)c1cn(C2CC2)nn1` [compound 672, N-(1-benzylazetidin-3-yl)-1-cyclopropyl-1H-1,2,3-triazole-4-carboxamide], for which the IC50 is 1550 nM.

As for `O=C(NC1CN(CCc2ccccc2)C1)c1cn(C2CC2)nn1` [compound 673, 1-cyclopropyl-N-[1-(2-phenylethyl)azetidin-3-yl]-1H-1,2,3-triazole-4-carboxamide], the IC50 is 1550 nM.

In the case of `O=C(NC1CN(C(CO)c2ccccc2)C1)c1cn(C2CC2)nn1` (stereo not drawn) [compound 674, 1-cyclopropyl-N-[1-(2-hydroxy-1-phenylethyl)azetidin-3-yl]-1H-1,2,3-triazole-4-carboxamide], the IC50 turned out to be 4270 nM.

For the compound `CC(c1ccccc1F)N1CC(NC(=O)c2cn(C3CC3)nn2)C1` (stereo not drawn) [compound 678, 1-cyclopropyl-N-{1-[1-(2-fluorophenyl)ethyl]azetidin-3-yl}-1H-1,2,3-triazole-4-carboxamide], the IC50 worked out at 907 nM.

In the case of `COc1cccc(C(C)N2CC(NC(=O)c3cn(C4CC4)nn3)C2)c1` (stereo not drawn) [compound 679, 1-cyclopropyl-N-{1-[1-(3-methoxyphenyl)ethyl]azetidin-3-yl}-1H-1,2,3-triazole-4-carboxamide], the IC50 is 1450 nM.

Turning to `CC(c1ccc(C(F)(F)F)cc1)N1CC(NC(=O)c2cn(C3CC3)nn2)C1` (stereo not drawn) [compound 680, 1-cyclopropyl-N-(1-{1-[4-(trifluoromethyl)phenyl]ethyl}azetidin-3-yl)-1H-1,2,3-triazole-4-carboxamide], the IC50 is more than 50000 nM.

Take `CCCCOc1ccc(C(C)N2CC(NC(=O)c3cn(C4CC4)nn3)C2)cc1` (stereo not drawn) [compound 681, N-{1-[1-(4-butoxyphenyl)ethyl]azetidin-3-yl}-1-cyclopropyl-1H-1,2,3-triazole-4-carboxamide]: the IC50 came to 1290 nM.

`CC(c1ccccc1OC(F)(F)F)N1CC(NC(=O)c2cn(C3CC3)nn2)C1` (stereo not drawn) [compound 684, 1-cyclopropyl-N-(1-{1-[2-(trifluoromethoxy)phenyl]ethyl}azetidin-3-yl)-1H-1,2,3-triazole-4-carboxamide]: the IC50 amounted to 2130 nM.

For the compound `COCCCN1CC(NC(=O)c2cn(C3CC3)nn2)C1` [compound 686, 1-cyclopropyl-N-[1-(3-methoxypropyl)azetidin-3-yl]-1H-1,2,3-triazole-4-carboxamide], the IC50 is 3760 nM.

For `COc1ccc(CC(C)N2CC(NC(=O)c3cn(C4CC4)nn3)C2)cc1OC` (stereo not drawn) [compound 688, 1-cyclopropyl-N-{1-[1-(3,4-dimethoxyphenyl)propan-2-yl]azetidin-3-yl}-1H-1,2,3-triazole-4-carboxamide], the IC50 came to 5100 nM.

As for `COc1cc(F)ccc1C(C)N1CC(NC(=O)c2cn(C3CC3)nn2)C1` (stereo not drawn) [compound 689, 1-cyclopropyl-N-{1-[1-(4-fluoro-2-methoxyphenyl)ethyl]azetidin-3-yl}-1H-1,2,3-triazole-4-carboxamide], the IC50 amounted to 1890 nM.

In the case of `COc1ccc(C(F)(F)F)cc1C(C)N1CC(NC(=O)c2cn(C3CC3)nn2)C1` (stereo not drawn) [compound 690, 1-cyclopropyl-N-(1-{1-[2-methoxy-5-(trifluoromethyl)phenyl]ethyl}azetidin-3-yl)-1H-1,2,3-triazole-4-carboxamide], the IC50 amounted to 7990 nM.

As to `CC(c1ccc2c(c1)OCO2)N1CC(NC(=O)c2cn(C3CC3)nn2)C1` (stereo not drawn) [compound 691, N-{1-[1-(2H-1,3-benzodioxol-5-yl)ethyl]azetidin-3-yl}-1-cyclopropyl-1H-1,2,3-triazole-4-carboxamide], the IC50 worked out at 807 nM.

Turning to `CC(c1ccc(OCc2ccccc2)cc1)N1CC(NC(=O)c2cn(C3CC3)nn2)C1` (stereo not drawn) [compound 692, N-(1-{1-[4-(benzyloxy)phenyl]ethyl}azetidin-3-yl)-1-cyclopropyl-1H-1,2,3-triazole-4-carboxamide], the IC50 was determined as 172 nM.

For `CC(c1ccc(OCc2ccccc2)cc1)N1CC(NC(=O)c2cn(C3CC3)nn2)C1` (stereo not drawn) [compound 693, N-(1-{1-[4-(benzyloxy)phenyl]ethyl}azetidin-3-yl)-1-cyclopropyl-1H-1,2,3-triazole-4-carboxamide], the IC50 was determined as 176 nM.

On to `CCC(c1ccc(F)cc1)N1CC(NC(=O)c2cn(C3CC3)nn2)C1` (stereo not drawn) [compound 694, 1-cyclopropyl-N-{1-[1-(4-fluorophenyl)propyl]azetidin-3-yl}-1H-1,2,3-triazole-4-carboxamide], for which the IC50 is 787 nM.

With `COc1ccc(C(C)N2CC(NC(=O)c3cn(C4CC4)nn3)C2)cc1OC` (stereo not drawn) [compound 698, 1-cyclopropyl-N-{1-[1-(3,4-dimethoxyphenyl)ethyl]azetidin-3-yl}-1H-1,2,3-triazole-4-carboxamide], the IC50 amounted to 3690 nM.

As to `CCC(c1ccc(C(F)(F)F)cc1)N1CC(NC(=O)c2cn(C3CC3)nn2)C1` (stereo not drawn) [compound 700, 1-cyclopropyl-N-(1-{1-[4-(trifluoromethyl)phenyl]propyl}azetidin-3-yl)-1H-1,2,3-triazole-4-carboxamide], the 50% inhibitory concentration (IC50) worked out at 2670 nM.

In the case of `COCCOc1cccc(CN2CC(NC(=O)c3cn(C4CC4)nn3)C2)c1` [compound 701, 1-cyclopropyl-N-(1-{[3-(2-methoxyethoxy)phenyl]methyl}azetidin-3-yl)-1H-1,2,3-triazole-4-carboxamide], the IC50 was found to be 8030 nM.

In the case of `COCCOc1cccc(C(C)N2CC(NC(=O)c3cn(C4CC4)nn3)C2)c1` (stereo not drawn) [compound 702, 1-cyclopropyl-N-(1-{1-[3-(2-methoxyethoxy)phenyl]ethyl}azetidin-3-yl)-1H-1,2,3-triazole-4-carboxamide], the IC50 stood at 3580 nM.

As for `CC(C)N1CC(NC(=O)c2cn(CCO)nn2)C1` [compound 703, 1-(2-hydroxyethyl)-N-[1-(propan-2-yl)azetidin-3-yl]-1H-1,2,3-triazole-4-carboxamide], the IC50 is more than 50000 nM.

For the compound `CC(c1cccc(OCCO)c1)N1CC(NC(=O)c2cn(C3CC3)nn2)C1` (stereo not drawn) [compound 704, 1-cyclopropyl-N-(1-{1-[3-(2-hydroxyethoxy)phenyl]ethyl}azetidin-3-yl)-1H-1,2,3-triazole-4-carboxamide], the IC50 was 640 nM.

On to `CNCCOc1cccc(C(C)N2CC(NC(=O)c3cn(C4CC4)nn3)C2)c1` (stereo not drawn) [compound 705, 1-cyclopropyl-N-[1-(1-{3-[2-(methylamino)ethoxy]phenyl}ethyl)azetidin-3-yl]-1H-1,2,3-triazole-4-carboxamide], for which the IC50 was determined as 2040 nM.

On to `O=C(NC1CN(CCCO)C1)c1cn(C2CC2)nn1` [compound 707, 1-cyclopropyl-N-[1-(3-hydroxypropyl)azetidin-3-yl]-1H-1,2,3-triazole-4-carboxamide], for which the IC50 is 1910 nM.

Take `CN(C)CCCN1CC(NC(=O)c2cn(C3CC3)nn2)C1` [compound 708, 1-cyclopropyl-N-{1-[3-(dimethylamino)propyl]azetidin-3-yl}-1H-1,2,3-triazole-4-carboxamide]: the IC50 was more than 50000 nM.

For `C[C@@H](c1ccccc1)N1CC(NC(=O)c2cn(C3CC3)nn2)C1` [compound 709, 1-cyclopropyl-N-{1-[(1S)-1-phenylethyl]azetidin-3-yl}-1H-1,2,3-triazole-4-carboxamide], the IC50 came to 377 nM.

Regarding `CC(c1ccc(F)cc1Cl)N1CC(NC(=O)c2cn(C3CC3)nn2)C1` (stereo not drawn) [compound 710, N-{1-[1-(2-chloro-4-fluorophenyl)ethyl]azetidin-3-yl}-1-cyclopropyl-1H-1,2,3-triazole-4-carboxamide], the IC50 is 341 nM.

Values taken from patent US10266526B2, “Substituted 1,2,3-triazoles as SMYD inhibitors for treating cancer” (EPIZYME, INC., priority 2014, dated 2019).
